Experimental data reported in PubChem BioAssay (NCI).
“And” between values parts separate entries of the source, which are not always exact repeats. Equal entries are not always repeated.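 Cells were grown in 96-well plates and exposed to each compound for 48 hours at five concentrations; endpoints were interpolated linearly between bracketing concentrations, or set to the highest concentration if not reached. GI50 = concentration required for 50% inhibition of growth. At the TGI there is no net growth.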

Assays:
Assay in all cases: NCI tumour cell line growth inhibition, 48 h
[1] = test system: M19-MEL melanoma
[2] = test system: DLD-1 colon
[3] = test system: SNB-78 CNS
[4] = test system: RXF-631 renal
[5] = test system: XF 498 CNS
[6] = test system: P388/ADR leukemia
[7] = test system: BT-549 breast
[8] = test system: NCI/ADR-RES ovarian
[9] = test system: T-47D breast
[10] = test system: SN12K1 renal
[11] = test system: P388 leukemia
[12] = test system: MDA-N

`CC(C)OP(=O)(CP(=O)(OC(C)C)OC(C)C)OC(C)C.[CH3][Sn]([Br])([Br])[Br]` gave a GI50 [1] greater than 100 µM, a TGI [1] greater than 100 µM and a GI50 [2] greater than 100 µM. It also gave a TGI [2] greater than 100 µM, a GI50 [3] greater than 100 µM and a TGI [3] greater than 100 µM. It also gave a GI50 [4] greater than 100 µM and a TGI [4] greater than 100 µM.

Work on `Cc1nnc2n1N=C(CC(=O)c1ccc(O)cc1O)CN2N` yielded a TGI [1] greater than 100 µM, a TGI [2] greater than 100 µM and a TGI [3] greater than 100 µM. For the same compound, the TGI [4] was greater than 100 µM.

`CC(=O)NC1C(OCc2ccccc2)OC(COC(=O)CCCCCCCCCCNC(=O)c2cccc3c(=O)c4ccccc4[nH]c23)C(O)C1OC(C)C(=O)NC(C)C(=O)NC(CCC(N)=O)C(N)=O` (configuration not stated) was tested, and the TGI [5] was greater than 100 µM, the TGI [1] was greater than 100 µM and the TGI [2] was greater than 100 µM. The TGI [3] was greater than 100 µM and the TGI [4] was 43.8 µM.

Work on `Brc1ccc2c(c1)C1(c3cc(Br)ccc3-2)c2cc(Br)ccc2-c2ccc(Br)cc21` yielded a TGI [5] greater than 100 µM, a TGI [1] greater than 100 µM and a TGI [2] greater than 100 µM. The TGI [3] was greater than 100 µM and the TGI [4] was greater than 100 µM.

With `COc1ccc([Se]c2ccc(OC)cc2OC)c(OC)c1` the TGI [5] was greater than 100 µM, the TGI [1] was 87.1 µM and the TGI [2] was greater than 100 µM. The TGI [3] was 96.6 µM and the TGI [4] was greater than 100 µM.

In the case of `CC1CCC(O)C(C(O)CC2CC(=O)N(C)C(=O)C2)C1` (configuration not stated), the TGI [5] is reported as greater than 100 µM, the TGI [1] is reported as greater than 100 µM and the TGI [2] is reported as greater than 100 µM. For the same compound, the TGI [3] was greater than 100 µM and the TGI [4] was greater than 100 µM.

With `COc1ccc(S(=O)(=O)N/N=C/C(=O)O)cc1` the TGI [6] was 721 µM, the TGI [5] was greater than 1080 µM and the TGI [7] was 704 µM. The TGI [1] was greater than 1250 µM, the TGI [8] was 1030 µM and the TGI [9] was greater than 1250 µM. The TGI [10] was greater than 1250 µM, the TGI [2] was greater than 1250 µM and the TGI [11] was 787 µM. For the same compound, the TGI [3] was greater than 1250 µM and the TGI [12] was greater than 1200 µM.

For `Cc1ccc(NC(=O)CCC(=O)C2CC(=O)CC/C2=N\NC(=O)c2cc3ccccc3cc2O)cc1C` (configuration not stated), the TGI [5] was 99 µM, the TGI [1] was 90.7 µM and the TGI [2] was greater than 100 µM. For the same compound, the TGI [3] was greater than 100 µM and the TGI [4] was greater than 100 µM.

`O=C1c2c(O)cccc2C(C(=O)CCCCC(=O)C2c3cccc(O)c3C(=O)c3c(O)cccc32)c2cccc(O)c21` gave a TGI [5] of 1.18 µM, a TGI [7] of 1.96 µM and a TGI [9] of 0.919 µM. For the same compound, the GI50 [2] was 1.68 µM, the TGI [2] was 4.52 µM and 9.27 µM and the GI50 [3] was 1.97 µM. For the same compound, the TGI [3] was 1.23 µM and 5.93 µM, the GI50 [4] was 1.36 µM and the TGI [4] was 3.61 µM and 2.81 µM. The TGI [12] was 3.77 µM.

`O=C1OCC(C(=O)c2cccc(O)c2)C1=O` (configuration not stated) gave a TGI [1] greater than 100 µM, a TGI [2] greater than 100 µM and a TGI [3] greater than 100 µM. For the same compound, the TGI [4] was greater than 100 µM.

`COC(=O)C(CC=O)C(=O)C(=O)Nc1cccc(C(F)(F)F)c1` (configuration not stated) was tested, and the TGI [5] was greater than 100 µM, the TGI [1] was greater than 100 µM and the TGI [2] was greater than 100 µM. The TGI [3] was greater than 100 µM and the TGI [4] was greater than 100 µM.

Work on `Oc1cc2cc(-c3ccccc3)[nH]c2c2ccccc12` yielded a TGI [5] of 25.9 µM, a TGI [1] of 28.9 µM and a TGI [2] greater than 100 µM. It also gave a TGI [3] greater than 100 µM and a TGI [4] greater than 89.8 µM.

In the case of `CCOC(=O)c1cnc2[nH]c(=O)c3ccccc3n2c1=O`, the TGI [5] is reported as greater than 100 µM, the TGI [1] is reported as greater than 100 µM and the TGI [2] is reported as greater than 100 µM. It also gave a TGI [3] greater than 100 µM and a TGI [4] greater than 100 µM.

For `O=C(CCCCCCCCCCc1ccccc1)c1c(O)cccc1O`, the TGI [5] was 40.1 µM, the TGI [1] was 42.7 µM and the TGI [2] was 39.7 µM. It also gave a TGI [3] greater than 100 µM and a TGI [4] of 85.4 µM.
